# Columns and labels:
# [1] = Protein binding assay in fresh human serum (size exclusion spin column); conditions: 37 °C, incubation time 168 h
# [2] = Stability assay in PBS and human serum; type: physicochemical; conditions: period of 7 days, 37 °C; no demetalation was observed
# Procedure: (§1) Determination of the stability of [^89Zr]DFO, [^89Zr]TAFC, and [^89Zr]FSC-RGD conjugates was carried out by incubating the radioligands in PBS, 1000-fold molar excess of EDTA solution with different pH (pH 7 and pH 6; radioligand vs EDTA: 25 μM vs 25 mM) as well as in human serum for 7 days at 37 °C, respectively. At selected time points three aliquots of PBS and EDTA solution were analyzed directly via ITLC, while the three serum aliquots were mixed with 500 μL of CH3CN, vortexed, and centrifuged at 20,000 rcf for 2 min prior to analysis.
# [3] = Distribution coefficient (logD), octanol/PBS; conditions: pH 7.4
# [4] = Transchelation study with 1000-fold molar excess of TAFC or DFO (RP-HPLC); type: physicochemical
# Procedure: [^89Zr]DFO and [^89Zr]TAFC (50 μL each) were mixed with a 1000-fold molar excess of either TAFC or DFO for 7 days at RT. At selected time points aliquots of the solutions were analyzed directly via RP-HPLC. ([^89Zr]DFO tR = 4.8 min; [^89Zr]TAFC tR = 5.9 min). The transchelation was determined by the ratio of [^89Zr]DFO and [^89Zr]TAFC. Three replicates were analyzed for each radioligand.
# [5] = Stability assay in 1000-fold molar excess of EDTA solution (ITLC); type: physicochemical; conditions: for transchelation in EDTA solution: 1000-fold molar excess of EDTA; for % intact starting species by incubation time: competitor EDTA 1000-fold excess, 37 °C, n = 3
# Procedure: as §1
smiles,measurement,setting,value
"CC(=O)N(O)CCCCCNC(=O)CCC(=O)N(O)CCCCCNC(=O)CCC(=O)N(O)CCCCCN [[^89Zr]DFO, desferrioxamine B, metal not drawn, reference compound]",protein binding (%),[1],8.7 ± 1.0%
same,stability in PBS and human serum,[2],high stability
same,logD,[3],-3
same,% intact starting species by incubation time,"[4]; competitor TAFC 1000-fold excess, pH 6, 1 h, RT, n = 3",0.0 ± 0.0%
same,fraction transchelated in 1000-fold molar excess of TAFC,[4]; within 1 h,100%
same,transchelation in EDTA solution,"[5]; pH 6, after 3 days",more than 90%
same,transchelation in EDTA solution,"[5]; pH 7, after 7 days, ITLC",~60%
same,% intact starting species by incubation time,"[5]; pH 6, 1 h",94.6 ± 0.4%
same,% intact starting species by incubation time,"[5]; pH 6, 4 h",63.5 ± 3.6%
same,% intact starting species by incubation time,"[5]; pH 6, 1 d",38.2 ± 8.4%
same,% intact starting species by incubation time,"[5]; pH 6, 3 d",6.4 ± 2.0%
same,% intact starting species by incubation time,"[5]; pH 6, 5 d",6.0 ± 1.8%
same,% intact starting species by incubation time,"[5]; pH 7, 1 h",95.5 ± 0.5%
same,% intact starting species by incubation time,"[5]; pH 7, 4 h",76.0 ± 1.0%
same,% intact starting species by incubation time,"[5]; pH 7, 1 d",55.4 ± 3.2%
same,% intact starting species by incubation time,"[5]; pH 7, 3 d",41.0 ± 5.2%
same,% intact starting species by incubation time,"[5]; pH 7, 5 d",43.3 ± 2.5%
same,% intact starting species by incubation time,"[5]; pH 7, 7 d",42.2 ± 2.3%

# Source: PMC4453016, “Novel Bifunctional Cyclic Chelator for ^89Zr Labeling–Radiolabeling and Targeting Properties of RGD Conjugates” (Molecular Pharmaceutics, 2015)
